Earlier results, collected in patent US6872408B2, “Method of treating bipolar disorders using deuterium-substituted carbonate” (priority 2001, dated 2005).

Assays:
patients = patients treated for mania
biological clock = settings: in vivo
deer mice = settings: increasing ratio of D2O to H2O in drinking water
[1] = tested on: patients with bipolar disorder

In the case of CCCC(CCC)C(=O)O [DEPAKOTE, valproic acid], the side effect (patients) is listed as “frequently causes blood dyscrasias”.
In the case of [2H]O[2H] [Deuterium oxide], the spontaneous locomotor activity (mouse) is given as “suppressed”, the “effect on length of the biological clock” value (biological clock) is given as “lengthen the biological clock” and the “effect of D2O on the biological clock” value (deer mice) is given as “dose dependent and reversible”. The “effect on the period and entrainment of the light-dark (LD) cycle” value (mice) was “chronomutagenic effect”.
For CCO [ethanol], the “effect on length of the biological clock” value (biological clock) is listed as “lengthen the biological clock”.
In the case of [Li] [lithium], the “time for effects to take affect” value ([1]; patients with bipolar disorder) is given as “up to 2 weeks” and the “patients receiving beneficial effects” value ([1]; patients with bipolar disorder prescribed lithium) is given as “up to 80%”.
For CC(C)[C@@H]1NC(=O)[C@H](C)OC(=O)[C@@H](C(C)C)NC(=O)[C@@H](C(C)C)OC(=O)[C@H](C(C)C)NC(=O)[C@H](C)OC(=O)[C@@H](C(C)C)NC(=O)[C@@H](C(C)C)OC(=O)[C@H](C(C)C)NC(=O)[C@H](C)OC(=O)[C@@H](C(C)C)NC(=O)[C@@H](C(C)C)OC1=O [valinomycin], the “effect on length of the biological clock” value (biological clock) is listed as “lengthen the biological clock”.
In the case of lithium salts, the “effect on length of the biological clock” value (biological clock) is listed as “lengthen the biological clock”.
